Ki and IC50 data for 5 compounds are collected here from ChEMBL document CHEMBL1127582, “Novel 3 alpha-(diphenylmethoxy)tropane analogs: potent dopamine uptake inhibitors without cocaine-like behavioral profiles” (J Med Chem, 1994).

Test [1] has as its target Sodium-dependent dopamine transporter (Rattus norvegicus, UniProt P23977). Description: Compound was evaluated for its ability to displace [3H]WIN-35428 binding in rat caudate-putamen. The format is tissue-based.
Test [2] is filed under the species Rattus norvegicus. Description: Compound was evaluated for its ability to block the [3H]-Dopamine uptake in rat caudate-putamen. It counts as functional, organism-based.

Sodium-dependent dopamine transporter, sequence (P23977 whole entry): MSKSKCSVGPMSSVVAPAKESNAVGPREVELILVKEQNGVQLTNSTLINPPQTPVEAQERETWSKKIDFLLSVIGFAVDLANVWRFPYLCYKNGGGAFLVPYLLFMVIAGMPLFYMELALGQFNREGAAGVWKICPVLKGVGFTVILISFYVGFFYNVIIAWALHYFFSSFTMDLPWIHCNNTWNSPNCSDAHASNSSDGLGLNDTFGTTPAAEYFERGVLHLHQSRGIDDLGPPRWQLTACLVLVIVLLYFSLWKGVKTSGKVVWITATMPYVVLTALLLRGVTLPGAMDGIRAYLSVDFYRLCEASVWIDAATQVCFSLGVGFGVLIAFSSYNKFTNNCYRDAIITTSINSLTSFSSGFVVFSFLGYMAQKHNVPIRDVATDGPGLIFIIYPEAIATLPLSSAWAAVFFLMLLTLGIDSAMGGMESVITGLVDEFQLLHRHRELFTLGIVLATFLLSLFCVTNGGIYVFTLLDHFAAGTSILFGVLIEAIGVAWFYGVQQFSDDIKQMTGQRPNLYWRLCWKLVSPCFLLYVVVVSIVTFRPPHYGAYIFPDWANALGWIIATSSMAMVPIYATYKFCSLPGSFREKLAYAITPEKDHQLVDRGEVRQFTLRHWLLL

`CN1[C@@H]2CC[C@H]1C[C@@H](OC(c1ccccc1)c1ccc(Cl)cc1)C2` (some centres undefined): the Ki in test [1] came to 0.03 µM. This compound registered a concentration for half-maximal inhibition (IC50) in test [2] of 0.115 µM.
As to `CN1C2CCC1CC(OC(c1ccccc1)c1ccc(Cl)cc1)C2` (centres undefined), the affinity in test [1] corresponds to a Ki of 0.854 µM. In test [2], the 50% inhibitory concentration (IC50) amounted to 3.52 µM.
For the compound `COc1ccc(C(OC2CC3CCC(C2)N3C)c2ccc(OC)cc2)cc1` (centres undefined), the Ki in test [1] turned out to be 2 µM. For the same compound, in test [2], the IC50 turned out to be 2.88 µM.
Compound `COc1ccc(C(OC2CC3CCC(C2)N3C)c2ccccc2)cc1` (centres undefined) returned an inhibition constant (Ki) in test [1] of 0.0784 µM. In addition, the IC50 in test [2] was determined as 0.468 µM.
As to `Fc1ccc(C(OCCN2CCN(CCCc3ccccc3)CC2)c2ccc(F)cc2)cc1` [VANOXERINE], the IC50 in test [2] was 0.005 µM. This counts as single-digit nanomolar.

The Ki is a measure of affinity in units of concentration, obtained from inhibition or displacement. A high value points to a looser hold on the target. The IC50 is the concentration that inhibits the measured activity by half.
